Source: US9458194B2, “Compounds useful in the treatment and/or care of the skin and their cosmetic or pharmaceutical compositions” (Lubrizol Advanced Materials, Inc., priority 2013, dated 2016)
Non-standard residues stand in square brackets, D forms with d. *: point of attachment. Palmitoyl = CCCCCCCCCCCCCCCC(=O)*; Orn = NCCC[C@H](N)C(=O)O; Dap = NC[C@H](N)C(=O)O; Dbu = Diaminobutyryl; NHHex = CCCCCCN*

Legend:
[1] = system: human fibulin-5 gene promoter; test: Luminescence assay of human fibulin-5 gene promoter activation (Firefly luciferase); type: cell-based; settings: 16-24 hours
Protocol: (§1) The effect of the compounds of the invention on the activity of the fibulin-5 and LOXL1 promoters was studied and compared to the levels of basal expression of the untreated cells (negative control) and with the effect of Interleukin-1β (IL-1β) in the same conditions.
(§2) Cells from an epithelial cell line doubly transfected with fibulin-5 and LOXL1 human promoters in which the luciferase gene is under the regulatory control of said promoters (4×10^4 cells/well) were seeded in a white plate and in a 96-well transparent plate, both treated with polylysine, and were incubated in Dulbecco's Modified Eagle Medium (DMEM-Glutamax™), with 10% of FBS, 1% Penicillin-Streptomycin (P/S), 1 mg/ml of Geneticin® (G418) and […] at 37° C. in at atmosphere with 5% CO2. After the incubation, the cells were incubated for 6 hours at 37° C. in at atmosphere with 5% CO2 with DMEM without serum. Then, this medium was removed and the cells were treated with different compounds at 0.1 mg/ml, 0.5 mg/ml, 1 mg/ml or 2 mg/mL in DMEM/1% FBS for 16-24 hours. As a positive control to activate the fibulin-5 and LOXL1 promoters 10 ng/ml of IL-1β were used and as a negative control untreated cells were used, just with DMEM/1% FBS. The incubations and treatments were carried out in parallel in the white plate and the transparent plate and in triplicate for each condition. After the treatment, the relative light units per second were determined (RLU/s) in the white plate by means of consecutive quantification of the activities of Firefly luciferase (fibulin-5 promoter) and Renilla luciferase (LOXL1 promoter), and the number of total cells/well in the transparent plate by means of staining with Crystal Violet (CV). To determine the Firefly and Renilla luciferase activities the Dual-Glo Luciferase Assay System kit by Promega was used. The cells were briefly lysed and the Firefly luciferase substrate was added. After incubating for 10 min at 25° C., the RLU/s were quantified by luminescence reader (Lumistar-BMG). Then the Firefly signal was extinguished and the Renilla luciferase substrate was added. After incubating for 5 min at 25° C., the RLU/s were quantified by the same luminescence reader. With regard to the determination of the total number of cells by Crystal Violet, the CV dyes the DNA of the cells and the quantity of dye taken by the cells can be measured in an absorbency reader at 630 nm (Multiskan Ascent). The color obtained is directly proportional to the total number of cells per well. The cells were briefly incubated with 0.05% CV plus 4% Formalin for 20 minutes and after several washes with Milli-Q water, the cells were left to dry for 1-2 hours and then 0.1 M of HCl was added for its immediate reading. The RLU/s of the luciferases corresponding to each promoter were normalized by the average of the total number of cells per condition. Three independent assays with 3 measurements per assay were carried out for Ac-L-Asp-L-Val-L-Lys-L-Tyr-OH at 0.1 mg/mL and 1 mg/mL. 1 assay with 3 measurements was carried out for the other compounds and concentrations.
(§3) The increase in the activity of the promoters with regard to the levels of expression of the negative control was determined.

[2] = system: human LOXL1 gene promoter; test: Luminescence assay of human LOXL1 gene promoter activation (Renilla luciferase); type: cell-based; settings: 16-24 hours
Protocol: as §1, §2, §3

| Substance | Increase in the activity of the human promoter of the FIBULIN 5 gene with regard to the negative control ([1]; 2 mg/mL) | Increase in the activity of the human promoter of the LOXL1 gene with regard to the negative control ([2]; 2 mg/mL) | further results |
| --- | --- | --- | --- |
| Ac-L-Asn-L-Val-L-Dpr-L-Tyr-OH (Ac-NV[Dap]Y-OH; SMILES CC(=O)N[C@@H](CC(N)=O)C(=O)N[C@H](C(=O)N[C@@H](CN)C(=O)N[C@@H](Cc1ccc(O)cc1)C(=O)O)C(C)C) | 35.49% | 3.99% |  |
| Ac-L-Asn-L-Ile-L-Lys-L-Tyr-OH (Ac-NIKY-OH) | 12.25% | 9.83% |  |
| H-L-Asp-L-Val-L-Lys-L-Tyr-OH (H-DVKY-OH) | 41.93% | 21.82% |  |
| Ac-L-Asp-L-Ile-L-Lys-L-Tyr-NH(n-hexadecyl) (Ac-DIKY-{NH(n-hexadecyl)}) | 59.33% | 27.08% |  |
| Ac-L-Asp-L-Leu-L-Lys-L-Tyr-OH (Ac-DLKY-OH) | 15.42% | 14.96% |  |
| Palm-L-Asn-L-Ile-L-Orn-L-Trp-NH(n-hexyl) (Palmitoyl-NI[Orn]W-NHHex; SMILES CCCCCCCCCCCCCCCC(=O)N[C@@H](CC(N)=O)C(=O)N[C@H](C(=O)N[C@@H](CCCN)C(=O)N[C@@H](Cc1c[nH]c2ccccc12)C(=O)NCCCCCC)[C@@H](C)CC) |  |  | Increase in the activity of the human promoter of the FIBULIN 5 gene with regard to the negative control ([1]; 1 mg/mL): 43.65%; Increase in the activity of the human promoter of the LOXL1 gene with regard to the negative control ([2]; 1 mg/mL): 18.48% |
| Ac-Gly-L-Gln-L-Lys(Ac-Gly-L-Gln)-4-Abz-NH2 |  |  | Increase in the activity of the human promoter of the FIBULIN 5 gene with regard to the negative control ([1]; 0.5 mg/mL): 17%; Increase in the activity of the human promoter of the LOXL1 gene with regard to the negative control ([2]; 0.5 mg/mL): 79% |
| Ac-L-Gln-L-Met-L-Lys-L-Tyr-OH (Ac-QMKY-OH) | 6.05% | 28.48% |  |
| Ac-L-Glu-L-Val-L-Lys-L-Trp-OH (Ac-EVKW-OH) | 10.92% | 22.22% |  |
| Ac-L-Asp-L-Val-L-Dbu-L-Tyr-OH (Ac-DV[Dbu]Y-OH) | 17.08% | 28.10% |  |
| Ac-L-Gln-L-Val-L-Lys-L-Tyr-OH (Ac-QVKY-OH) | 19.79% | 22.61% |  |
| Ac-L-Asp-L-Val-L-Lys-L-Tyr-NH(n-hexyl) (Ac-DVKY-NHHex; SMILES CCCCCCNC(=O)[C@H](Cc1ccc(O)cc1)NC(=O)[C@H](CCCCN)NC(=O)[C@@H](NC(=O)[C@H](CC(=O)O)NC(C)=O)C(C)C) | 18.11% | 7.54% |  |
| Ac-L-Gln-L-Val-L-Dbu-L-Trp-NH2 (Ac-QV[Dbu]W-NH2) | 26.39% | 68.94% |  |
| Ac-L-Glu-L-Val-L-Lys-L-Tyr-OH (Ac-EVKY-OH) | 27.45% | 5.59% |  |
| Ac-L-Lys-L-Cit-L-Lys(Ac-L-Lys-L-Cit)-4-Abz-NH2 |  |  | Increase in the activity of the human promoter of the FIBULIN 5 gene with regard to the negative control ([1]; 0.5 mg/mL): 21%; Increase in the activity of the human promoter of the LOXL1 gene with regard to the negative control ([2]; 0.5 mg/mL): 22% |
| H-L-Asn-L-Leu-L-Lys-L-Tyr-OH (H-NLKY-OH) | 9.69% | 16.67% |  |
| Ac-L-Asn-L-Thr-L-Lys(Ac-L-Asn-L-Thr)-4-Abz-NH2 |  |  | Increase in the activity of the human promoter of the FIBULIN 5 gene with regard to the negative control ([1]; 0.5 mg/mL): 39%; Increase in the activity of the human promoter of the LOXL1 gene with regard to the negative control ([2]; 0.5 mg/mL): 51% |
| Ac-Asn-L-His-L-Lys(Ac-Asn-L-His)-4-Abz-NH2 |  |  | Increase in the activity of the human promoter of the FIBULIN 5 gene with regard to the negative control ([1]; 0.5 mg/mL): 53%; Increase in the activity of the human promoter of the LOXL1 gene with regard to the negative control ([2]; 0.5 mg/mL): 47% |
| Ac-L-Asp-L-Val-L-Orn-L-Tyr-OH (Ac-DV[Orn]Y-OH; SMILES CC(=O)N[C@@H](CC(=O)O)C(=O)N[C@H](C(=O)N[C@@H](CCCN)C(=O)N[C@@H](Cc1ccc(O)cc1)C(=O)O)C(C)C) | 44.60% | 28.35% |  |
| Ac-L-Asn-L-IIe-L-Dpr-L-Tyr-OH (Ac-NI[Dap]Y-OH; SMILES CC[C@H](C)[C@H](NC(=O)[C@H](CC(N)=O)NC(C)=O)C(=O)N[C@@H](CN)C(=O)N[C@@H](Cc1ccc(O)cc1)C(=O)O) | 41.79% | 8.75% |  |
| Palm-L-Asp-L-Val-L-Lys-L-Tyr-OH (Palmitoyl-DVKY-OH; SMILES CCCCCCCCCCCCCCCC(=O)N[C@@H](CC(=O)O)C(=O)N[C@H](C(=O)N[C@@H](CCCCN)C(=O)N[C@@H](Cc1ccc(O)cc1)C(=O)O)C(C)C) | 32.47% | 25.17% |  |
| H-L-Gln-L-Val-L-Orn-L-Tyr-OH (H-QV[Orn]Y-OH; SMILES CC(C)[C@H](NC(=O)[C@@H](N)CCC(N)=O)C(=O)N[C@@H](CCCN)C(=O)N[C@@H](Cc1ccc(O)cc1)C(=O)O) | 7.04% | 25.84% |  |
| Ac-L-Asp-L-Met-L-Lys-L-Tyr-OH (Ac-DMKY-OH) | 14.36% | 32.85% |  |
| H-L-Gln-L-Ile-L-Orn-L-Tyr-OH (H-QI[Orn]Y-OH; SMILES CC[C@H](C)[C@H](NC(=O)[C@@H](N)CCC(N)=O)C(=O)N[C@@H](CCCN)C(=O)N[C@@H](Cc1ccc(O)cc1)C(=O)O) | 4.41% | 47.99% |  |
| Ac-L-Gln-L-Val-L-Lys-L-Trp-NH2 (Ac-QVKW-NH2) | 38.10% | 18.08% |  |
| Ac-L-Asp-L-Val-L-Lys-L-Tyr-NH2 (Ac-DVKY-NH2) | 30.26% | 22.87% |  |
